Measurements published in PMC6615261, “Repurposing Azithromycin and Rifampicin Against Gram-Negative Pathogens by Combination With Peptidomimetics” (Frontiers in Cellular and Infection Microbiology, 2019).
Read-outs that look alike come from different tables or passages of the source.

Assays:
P. aeruginosa ATCC 27853 [1] = assay: MIC by broth microdilution; format: cell-based, Pseudomonas aeruginosa; settings: peptidomimetic alone
Summary of the method: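 Potentiation is scored as MIC of standard antibiotics in prepared dilution plates with peptidomimetic present, added just prior to pathogen inoculation. MICs are read by CLSI broth microdilution.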

E. coli ST131 [2] = system: E. coli ST131
Summary of the method: (§1)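 Two-dimensional checkerboard broth microdilution in MHB II, with twofold dilutions of peptidomimetic and antibiotic on crossed axes and 18–20 h incubation per CLSI. FICI = MICA(A+B)/MICA(alone) + MICB(A+B)/MICB(alone); ≤0.5 is interpreted as synergy.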

K. pneumoniae ST258 [3] = system: K. pneumoniae ST258
Summary of the method: as §1

P. aeruginosa ATCC 27853 [4] = system: P. aeruginosa ATCC 27853
Summary of the method: as §1

[5] = system: E. coli clinical isolates and reference strains; assay: MIC of fixed-ratio peptidomimetic 1-antibiotic combinations in clinical isolates and reference strains; format: cell-based, Escherichia coli; settings: with rifampicin or azithromycin
Text: (§2) Bacterial strains used in this study comprise MDR clinical isolates of E. coli ST131 (Cerquetti et al., [2010]) and K. pneumoniae ST258 (Jana et al., [2017]), and American type culture collection (ATCC) strains: ATCC 25922 (E. coli), ATCC 13883 (K. pneumoniae), and ATCC 27853 (P. aeruginosa). Additional clinical isolates of E. coli, K. pneumoniae, and P. aeruginosa resistant to β-lactams (including carbapenems and cephalosporins) were provided by Laurent Poirel, Université de Fribourg, Switzerland. The following growth media was routinely used for bacterial culturing: Luria-Burtani (LB), cation-adjusted Mueller-Hinton agar (MHA) and broth (MHB II). All assays were performed in cation-adjusted MHA or MHB II. Antibiotics were purchased from Sigma-Aldrich and the peptidomimetic collection (Table S1) was curated and provided by Henrik Franzyk. […]
Minimal inhibitory concentrations (MICs) of peptidomimetics, antibiotics and their combinations were determined by broth microdilution according to the Clinical Laboratory Standards Institute performance standards (Clinical and Laboratory Standards Institute, [2013]). […] Potentiation of additional antibiotics by peptidomimetics was determined by using commercial 96-well plates containing varied concentrations of standard antibiotics (COMPAN1F; Trek Diagnostic Systems Inc.). The peptidomimetics were added immediately prior to inoculation with pathogen, and then MICs were determined as above. The MICs of peptidomimetic/antibiotic combinations were determined according to the method above, and the concentration ratios were selected based upon checkerboard results with 2:1 and 1:4 ratio of peptidomimetic with rifampicin or azithromycin, respectively. Minimal bactericidal concentrations (MBCs) were determined by using growth-curve assay plates. […] Growth was recorded at 10 min intervals as optical density (OD) at 600 nm during 24 h. […]

[6] = system: K. pneumoniae clinical isolates and reference strains; assay: as above; format: cell-based, Klebsiella pneumoniae; settings: with rifampicin or azithromycin
Text: as §2, with “II.” for “II. Antibiotics were purchased from Sigma-Aldrich and the peptidomimetic collection (Table S1) was curated and provided by Henrik Franzyk.”
Minimal inhibitory concentrations (MICs) of peptidomimetics, antibiotics and their combinations were determined by broth microdilution according to the Clinical Laboratory Standards Institute performance standards (Clinical and Laboratory Standards Institute, [2013]). […] Potentiation of additional antibiotics by peptidomimetics was determined by using commercial 96-well plates containing varied concentrations of standard antibiotics (COMPAN1F; Trek Diagnostic Systems Inc.). The peptidomimetics were added immediately prior to inoculation with pathogen, and then MICs were determined as above. […] Minimal bactericidal concentrations (MBCs) were determined by using growth-curve assay plates. […]

E. coli ST131 [7] = settings: ST131, 24 h
Procedure: (§3) Minimal inhibitory concentrations (MICs) of peptidomimetics, antibiotics and their combinations were determined by broth microdilution according to the Clinical Laboratory Standards Institute performance standards (Clinical and Laboratory Standards Institute, [2013]). […] Since rifampicin and azithromycin mainly are used to treat infections with Gram-positive pathogens only CLSI clinical breakpoints were available for such bacteria. […] Potentiation of additional antibiotics by peptidomimetics was determined by using commercial 96-well plates containing varied concentrations of standard antibiotics (COMPAN1F; Trek Diagnostic Systems Inc.). The peptidomimetics were added immediately prior to inoculation with pathogen, and then MICs were determined as above. The MICs of peptidomimetic/antibiotic combinations were determined according to the method above, and the concentration ratios were selected based upon checkerboard results with 2:1 and 1:4 ratio of peptidomimetic with rifampicin or azithromycin, respectively. Minimal bactericidal concentrations (MBCs) were determined by using growth-curve assay plates. MIC plates were prepared as above, and then the plates were incubated at 37°C with continuous shaking. Growth was recorded at 10 min intervals as optical density (OD) at 600 nm during 24 h. At 24 h, for wells without growth, a sample was diluted 10-fold in sterile saline (0.9% sodium chloride) and plated onto MHA, following CLSI guidelines (Clinical and Laboratory Standards Institute, [1999]).

K. pneumoniae ST258 [8] = settings: ST258, 24 h
Procedure: as §3

P. aeruginosa ATTC 27853 = settings: ATTC 27853, 24 h
Procedure: as §3

[9] = MIC of azithromycin combined with the labelled peptidomimetic
[10] = MIC of rifampicin combined with the labelled peptidomimetic

MIC P. aeruginosa ATCC 27853 (P. aeruginosa ATCC 27853 [1]): 1 µM | Antibiotic MIC in combination (AZM) (E. coli ST131 [2]; [9]): 1 µg/mL | Antibiotic MIC in combination (RIF) (E. coli ST131 [2]; [10]): 0.06 µg/mL | Peptidomimetic MIC alone (E. coli ST131 [2]; checkerboard): 2 µM | Peptidomimetic MIC in combination (E. coli ST131 [2]; combined with AZM): 0.25 µM | Peptidomimetic MIC in combination (E. coli ST131 [2]; combined with RIF): 0.5 µM | Antibiotic MIC in combination (AZM) (K. pneumoniae ST258 [3]; [9]): 4 µg/mL | Antibiotic MIC in combination (RIF) (K. pneumoniae ST258 [3]; [10]): 0.25 µg/mL | Peptidomimetic MIC alone (K. pneumoniae ST258 [3]; checkerboard): 16 µM | Peptidomimetic MIC in combination (K. pneumoniae ST258 [3]; combined with AZM): 0.5 µM | Peptidomimetic MIC in combination (K. pneumoniae ST258 [3]; combined with RIF): 0.5 µM | Antibiotic MIC in combination (RIF) (P. aeruginosa ATCC 27853 [4]; P. aeruginosa ATCC 27853, MIC of rifampicin combined with the labelled peptidomimetic): 1 µg/mL | Peptidomimetic MIC alone (P. aeruginosa ATCC 27853 [4]; P. aeruginosa ATCC 27853, checkerboard): 1 µM | Peptidomimetic MIC in combination (P. aeruginosa ATCC 27853 [4]; P. aeruginosa ATCC 27853, combined with AZM): 0.25 µM | Peptidomimetic MIC in combination (P. aeruginosa ATCC 27853 [4]; P. aeruginosa ATCC 27853, combined with RIF): 0.25 µM | Reduction of the MIC of azithromycin (P. aeruginosa ATCC 27853 [4]; P. aeruginosa, sub-MIC concentrations of peptidomimetic): 32- to 512 fold | MIC (peptidomimetic alone) (E. coli ST131 [7]): 1 µM | MIC (peptidomimetic alone) (K. pneumoniae ST258 [8]): 8 µM | MIC (peptidomimetic alone) (P. aeruginosa ATTC 27853): 1 µM
Compound: NCCCC[C@H](NC(=O)CCN(Cc1ccccc1)C(=O)[C@H](CCCCN)NC(=O)CCN(Cc1ccccc1)C(=O)[C@H](CCCCN)NC(=O)CCN(Cc1ccccc1)C(=O)[C@H](CCCCN)NC(=O)CCN(Cc1ccccc1)C(=O)[C@H](CCCCN)NC(=O)CCN(Cc1ccccc1)C(=O)[C@H](CCCCN)NC(=O)CCN(Cc1ccccc1)C(=O)[C@H](CCCCN)NC(=O)CCN(Cc1ccccc1)C(=O)[C@@H](N)CCCCN)C(=O)N(CCC(N)=O)Cc1ccccc1 [Peptidomimetic 1, H-(Lys-βNPhe)8-NH2]
Peptidomimetic concentration in combination, most E. coli isolates [5]: 0.5 to 1 µM | Peptidomimetic concentration required to induce susceptibility, three K. pneumoniae isolates [6]: 2 to 8 µM | MBC (peptidomimetic alone) (E. coli ST131 [7]): 1 µM | MBC (peptidomimetic alone) (K. pneumoniae ST258 [8]): 16 to 32 µM | MBC (peptidomimetic alone) (P. aeruginosa ATTC 27853): 2 µM
